Data: US20160222432A1, “TEST STRIP USING FORMALDEHYDE OR PEROXIDE, FROM AMONG SARCOSINE METABOLITES, FOR DIAGNOSING PROSTATE CANCER, AND METHOD FOR DIAGNOSING PROSTATE CANCER USING SAME” (CSQUARE CO., LTD, priority 2013, published 2016)

Tested on: sarcosine oxidase
Assay: Influence of metal ions (metal chloride salts) on sarcosine oxidase activity
Assay type: biochemical
Conditions: sarcosine oxidase activity with metal chloride salt, final concentration 2 mM, None = 100
Protocol: As shown in the following Table 1, activity of the sarcosine oxidase was greatly influenced by metal ions. Since metal ions were inevitably contained in the sample, EDTA was added at 0.01 to 0.02 g/dL to chelate the metal ions and to prevent activity of the sarcosine oxidase from decreasing due to the metal ions. In this case, when an amount of EDTA added was small, the metal ions were not sufficiently removed. […] In the present example, EDTA4NA was used. However, another substance that can chelate the metal ions could be used. Then, AHMT serving as a chromogen was dissolved at 20 to 50 mM. In this case, when an amount of the reagent added was small, there was no difference in color development between specimens of an intermediate concentration and a high concentration. On the other hand, when an amount of the reagent added was large, discoloration was caused in a natural state, which caused a change in a product or a false positive result.
As shown in the following Table 2, activity of the sarcosine oxidase is greatly influenced by metal ions. When an excessive amount of metal ions was contained in the sample, EDTA was added at 0.01 to 0.02 g/dL in order to chelate and remove the metal ions and prevent activity of the sarcosine oxidase from decreasing due to the metal ions. That is, EDTA serves as a metal adsorber and facilitates activation of the enzymes. In the present example, EDTA4NA was used. However, another substance that can chelate the metal ions could be used. When an amount of EDTA added was small, the metal ions were not sufficiently removed.

SMILES	Relative activity (%) (Table 1 (first example))	Relative activity (%) (Table 2 (second example))
[Cl][Mn][Cl] [Mn^2+]	63	63
[Cl][Ni][Cl] [Ni^2+]	76	76
[Cl][Fe][Cl] [Fe^2+]	66	66
[Cl][Hg][Cl] [Hg^2+]	0	0
[Cl][Cd][Cl] [Cd^2+]	7	7
[Cl-].[Cl-].[Zn+2] [Zn^2+]	7	7
[Cl][Cu][Cl] [Cu^2+]	0	0
[Cl-].[Cl-].[Co+2] [Co^2+]	52	52
